Laboratory results published in patent US20160193206A1, “BET-PROTEIN-INHIBITING DIHYDROPYRIDOPYRAZINONES” (BAYER PHARMA AKTIENGESELLSCHAFT, priority 2012, published 2016).

Experiments:
[1] = target: T1, BRD4 bromo domain 1 [BRD4(1)] (Homo sapiens, UniProt O60885); assay: BRD4(1)/acetylated peptide H4 binding assay (TR-FRET); details: inhibition of interaction between His6-tagged BRD4(1) (amino acids 67-152) and acetylated histone H4 peptide
T1 construct: N-terminally His6-tagged BRD4(1) (amino acids 67-152); made in house; host or cells: E. coli
In short: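 IC50 came from a 4-parameter fit of the 665/620 nm emission ratio, normalised to DMSO and no-protein controls. His6-tagged BRD4(1) residues 67-152 (typically 10 nM final) was preincubated 10 min with compound (0.1 nM to 20 μM, duplicates), then exposed to Ac-H4-biotin peptide at 22 °C for 1 h and 4 °C for at least 3 h.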

[2] = target: T2, BRD4 bromo domain 2 [BRD4(2)] (Homo sapiens, UniProt O60885); assay: BRD4(2)/acetylated peptide H4 binding assay (TR-FRET); details: inhibition of interaction between His6-tagged BRD4(2) (amino acids 357-445) and acetylated histone H4 peptide
T2 construct: N-terminally His6-tagged BRD4(2) (amino acids 357-445); made in house; host or cells: E. coli
In short: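 Compounds (0.1 nM to 20 μM, 11 points, duplicates) preincubated 10 min at 22 °C with 100 nM His6-tagged BRD4(2) residues 357-445, then Ac-H4-biotin peptide added; incubated 1 h at 22 °C and 3 h-overnight at 4 °C. Eu/XL665 emission ratio normalised to DMSO and no-protein controls; 4-parameter IC50.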

MOLM-13 cell line = assay: MOLM-13 cell proliferation assay (alamarBlue); format: cell-based; details: Homo sapiens, inhibition of proliferation of MOLM-13 cells (acute myeloid leukaemia), 96 hours incubation
In short: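 MOLM-13 (human AML) cells were treated with compound dilutions for 96 h at 37 °C after overnight plating, and viability was read by alamarBlue fluorescence (ex 530/em 590 nm). Pre-treatment readings were subtracted from end-point readings, and IC50 was calculated relative to buffer-only controls.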

CC(C)N1c2nc(Nc3ccc(S(=O)(=O)N4CCN(C)CC4)cc3)ccc2N(C)C(=O)[C@H]1C [Example 99, (3R)-1,3-Dimethyl-6-({4-[(4-methylpiperazin-1-yl)sulphonyl]phenyl}amino)-4-(propan-2-yl)-3,4-dihydropyrido[2,3-b]pyrazin-2(1H)-one]
IC50 [1]: 145 nM | IC50 [2]: 104 nM | IC50 (MOLM-13 cell line): 316 nM

CC(C)N1c2nc(Nc3ccc(S(=O)(=O)N(C)C)cc3)ccc2N(C)C(=O)[C@H]1C [Example 100, 4-{[(3R)-1,3-Dimethyl-2-oxo-4-(propan-2-yl)-1,2,3,4-tetrahydropyrido[2,3-b]pyrazin-6-yl]amino}-N,N-dimethylbenzenesulphon-amide]
IC50 [1]: 156 nM | IC50 [2]: 71 nM | IC50 (MOLM-13 cell line): 336 nM

CC(C)N1c2nc(Nc3ccc(S(=O)(=O)N4CCOCC4)cc3)ccc2N(C)C(=O)[C@H]1C [Example 101, (3R)-1,3-Dimethyl-6-{[4-(morpholin-4-ylsulphonyl)phenyl]amino}-4-(propan-2-yl)-3,4-dihydropyrido[2,3-b]pyrazin-2(1H)-one]
IC50 [1]: 134 nM | IC50 [2]: 105 nM | IC50 (MOLM-13 cell line): 226 nM

CC(C)N1CCN(S(=O)(=O)c2ccc(Nc3ccc4c(n3)N(C3CCCC3)[C@H](C)C(=O)N4C)cc2)CC1 [Example 102, (3R)-4-Cyclopentyl-1,3-dimethyl-6-[(4-{[4-(propan-2-yl)piperazin-1-yl]sulphonyl}phenyl)amino]-3,4-dihydropyrido[2,3-b]pyrazin-2(1H)-one]
IC50 [1]: 100 nM | IC50 [2]: 90 nM | IC50 (MOLM-13 cell line): 214 nM

C[C@@H]1C(=O)N(C)c2ccc(Nc3ccc(S(=O)(=O)N(C)C)cc3)nc2N1C1CCCC1 [Example 103, 4-{[(3R)-4-Cyclopentyl-1,3-dimethyl-2-oxo-1,2,3,4-tetrahydropyrido[2,3-b]pyrazin-6-yl]amino}-N,N-dimethylbenzenesulphonamide]
IC50 [1]: 78 nM | IC50 [2]: 51 nM | IC50 (MOLM-13 cell line): 177 nM

CC1C(=O)N(C)c2ccc(Nc3ccc(S(=O)(=O)NC4CCN(C)CC4)cc3)nc2N1c1ccccc1 (stereo not drawn) [Example 107, 4-[(1,3-Dimethyl-2-oxo-4-phenyl-1,2,3,4-tetrahydropyrido[2,3-b]pyrazin-6-yl)amino]-N-(1-methylpiperidin-4-yl)benzenesulphonamide]
IC50 [1]: 201 nM | IC50 [2]: 241 nM | IC50 (MOLM-13 cell line): 255 nM
